# Measured values published in PubChem BioAssay (NCI).
#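 These data come from cells grown in 96-well plates and exposed to compound for 48 hours at five concentrations. The concentration for full growth arrest is given as TGI.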
# Assays:
# Assay in all cases: DTP human tumour cell line panel, 48 h
# [1] = system: 786-0 renal
# [2] = system: A498 renal
# [3] = system: A549 NSCLC
# [4] = system: ACHN renal
# [5] = system: BT-549 breast
# [6] = system: CAKI-1 renal
# [7] = system: CCRF-CEM leukemia
# [8] = system: COLO 205 colon
# [9] = system: DU-145 prostate
# [10] = system: EKVX NSCLC
# [11] = system: HCC-2998 colon
# [12] = system: HCT-116 colon
# [13] = system: HCT-15 colon
# [14] = system: HL-60(TB) leukemia
# [15] = system: HOP-92 NSCLC
# [16] = system: HS 578T breast
# [17] = system: HT29 colon
# [18] = system: IGROV1 ovarian
# [19] = system: K-562 leukemia
# [20] = system: KM12 colon
# [21] = system: LOX IMVI melanoma
# [22] = system: M14 melanoma
# [23] = system: MALME-3M melanoma
# [24] = system: MCF7 breast
# [25] = system: MDA-MB-231 breast
# [26] = system: MDA-N
# [27] = system: MOLT-4 leukemia
# [28] = system: NCI-H226 lung
# [29] = system: NCI-H23 lung
# [30] = system: NCI-H460 lung
# [31] = system: NCI-H522 lung
# [32] = system: NCI/ADR-RES ovarian
# [33] = system: OVCAR-3 ovarian
# [34] = system: OVCAR-4 ovarian
# [35] = system: OVCAR-5 ovarian
# [36] = system: OVCAR-8 ovarian
# [37] = system: PC-3 prostate
# [38] = system: RPMI-8226 leukemia
# [39] = system: SF-268 CNS
# [40] = system: SF-295 CNS
# [41] = system: SF-539 CNS
# [42] = system: SK-MEL-2 melanoma
# [43] = system: SK-MEL-28 melanoma
# [44] = system: SK-MEL-5 melanoma
# [45] = system: SK-OV-3 ovarian
# [46] = system: SN12C renal
# [47] = system: SNB-19 CNS
# [48] = system: SNB-75 CNS
# [49] = system: SW-620 colon
# [50] = system: T-47D breast
# [51] = system: TK-10 renal
# [52] = system: U251 CNS
# [53] = system: UACC-257 melanoma
# [54] = system: UACC-62 melanoma
# [55] = system: UO-31 renal
# [56] = system: HOP-62 NSCLC
# [57] = system: MDA-MB-435
# [58] = system: RXF 393 renal
# [59] = system: SR leukemia
compound,measurement,setting,value
CC(=O)c1c(O)c(C)c(O)c(Cc2c(O)c3c(c(C(=O)/C=C/c4ccccc4)c2O)OC(C)(C)C=C3)c1O,TGI,[1],18.7 µM
same,TGI,[2],6.71 µM
same,TGI,[3],5.13 µM
same,TGI,[4],34.3 µM
same,TGI,[5],8.77 µM
same,TGI,[6],9.07 µM
same,TGI,[7],> 100 µM
same,TGI,[8],3.95 µM
same,TGI,[9],41.1 µM
same,TGI,[10],12.9 µM
same,TGI,[11],11.1 µM
same,TGI,[12],10.2 µM
same,TGI,[13],14.3 µM
same,TGI,[14],26.2 µM
same,TGI,[15],6.08 µM
same,TGI,[16],> 100 µM
same,TGI,[17],13.1 µM
same,TGI,[18],16.3 µM
same,TGI,[19],14.7 µM
same,TGI,[20],16.7 µM
same,TGI,[21],14.3 µM
same,TGI,[22],18.4 µM
same,TGI,[23],12.6 µM
same,TGI,[24],19.9 µM
same,TGI,[25],6.86 µM
same,TGI,[26],> 100 µM
same,TGI,[27],16.8 µM
same,TGI,[28],23 µM
same,TGI,[29],14 µM
same,TGI,[30],16.4 µM
same,TGI,[31],11.5 µM
same,TGI,[32],15.8 µM
same,TGI,[33],15.8 µM
same,TGI,[34],29.4 µM
same,TGI,[35],22.4 µM
same,TGI,[36],23.7 µM
same,TGI,[37],5.18 µM
same,TGI,[38],> 100 µM
same,TGI,[39],85.7 µM
same,TGI,[40],11.6 µM
same,TGI,[41],26.5 µM
same,TGI,[42],4.09 µM
same,TGI,[43],14.9 µM
same,TGI,[44],5.75 µM
same,TGI,[45],15.1 µM
same,TGI,[46],9.09 µM
same,TGI,[47],19.4 µM
same,TGI,[48],7.93 µM
same,TGI,[49],14.8 µM
same,TGI,[50],7.89 µM
same,TGI,[51],> 100 µM
same,TGI,[52],14.5 µM
same,TGI,[53],7.16 µM
same,TGI,[54],10 µM
same,TGI,[55],8.19 µM
COc1ccc2c(c1)C(=O)CC1c3cnccc3C(=O)N21 (stereo unspecified),TGI,[1],> 100 µM
same,TGI,[2],> 100 µM
same,TGI,[3],> 100 µM
same,TGI,[4],> 100 µM
same,TGI,[5],> 100 µM
same,TGI,[6],> 100 µM
same,TGI,[8],> 100 µM
same,TGI,[9],> 100 µM
same,TGI,[10],> 100 µM
same,TGI,[11],> 100 µM
same,TGI,[12],> 100 µM
same,TGI,[13],> 100 µM
same,TGI,[56],> 100 µM
same,TGI,[15],> 100 µM
same,TGI,[17],> 100 µM
same,TGI,[18],> 100 µM
same,TGI,[19],> 100 µM
same,TGI,[20],> 100 µM
same,TGI,[21],> 100 µM
same,TGI,[22],> 100 µM
same,TGI,[23],> 100 µM
same,TGI,[24],> 100 µM
same,TGI,[25],> 100 µM
same,TGI,[57],> 31.6 µM
same,TGI,[26],> 100 µM
same,TGI,[27],> 100 µM
same,TGI,[28],> 100 µM
same,TGI,[29],> 100 µM
same,TGI,[30],> 100 µM
same,TGI,[31],> 100 µM
same,TGI,[32],> 100 µM
same,TGI,[33],> 100 µM
same,TGI,[34],> 100 µM
same,TGI,[35],> 100 µM
same,TGI,[36],> 100 µM
same,TGI,[37],> 100 µM
same,TGI,[38],> 100 µM
same,TGI,[58],> 100 µM
same,TGI,[39],> 100 µM
same,TGI,[40],> 100 µM
same,TGI,[41],> 100 µM
same,TGI,[42],> 100 µM
same,TGI,[43],> 100 µM
same,TGI,[44],> 100 µM
same,TGI,[45],> 100 µM
same,TGI,[46],> 100 µM
same,TGI,[47],> 100 µM
same,TGI,[48],> 100 µM
same,TGI,[59],> 100 µM
same,TGI,[49],> 100 µM
same,TGI,[50],> 100 µM
same,TGI,[51],> 100 µM
same,TGI,[52],> 100 µM
same,TGI,[53],> 100 µM
same,TGI,[54],> 100 µM
same,TGI,[55],99.5 µM
O=C(Nc1ccc(N2C(=O)CSC2c2ccccc2O)cc1)c1ccc(N2C(=O)CSC2c2ccccc2O)cc1 (stereo unspecified),TGI,[1],> 100 µM
same,TGI,[3],> 100 µM
same,TGI,[4],> 100 µM
same,TGI,[5],> 100 µM
same,TGI,[6],> 100 µM
same,TGI,[7],> 100 µM
same,TGI,[8],> 100 µM
same,TGI,[9],> 100 µM
same,TGI,[10],> 100 µM
same,TGI,[11],> 100 µM
same,TGI,[12],> 100 µM
same,TGI,[13],> 100 µM
same,TGI,[56],> 100 µM
same,TGI,[15],86.4 µM
same,TGI,[16],> 100 µM
same,TGI,[17],> 100 µM
same,TGI,[18],> 100 µM
same,TGI,[19],> 100 µM
same,TGI,[20],> 100 µM
same,TGI,[21],> 100 µM
same,TGI,[22],61.3 µM
same,TGI,[23],> 100 µM
same,TGI,[24],> 100 µM
same,TGI,[25],> 100 µM
same,TGI,[57],> 100 µM
same,TGI,[26],> 100 µM
same,TGI,[27],> 100 µM
same,TGI,[29],> 100 µM
same,TGI,[30],> 100 µM
same,TGI,[31],> 100 µM
same,TGI,[32],> 100 µM
same,TGI,[33],> 100 µM
same,TGI,[34],> 100 µM
same,TGI,[35],> 100 µM
same,TGI,[36],> 100 µM
same,TGI,[37],> 100 µM
same,TGI,[38],> 100 µM
same,TGI,[58],> 100 µM
same,TGI,[39],> 100 µM
same,TGI,[40],> 100 µM
same,TGI,[41],> 100 µM
same,TGI,[42],> 100 µM
same,TGI,[43],> 100 µM
same,TGI,[44],> 100 µM
same,TGI,[45],62.3 µM
same,TGI,[46],> 100 µM
same,TGI,[47],> 100 µM
same,TGI,[48],82.4 µM
same,TGI,[49],> 100 µM
same,TGI,[50],> 100 µM
same,TGI,[51],> 100 µM
same,TGI,[52],> 100 µM
same,TGI,[53],> 100 µM
same,TGI,[54],98.1 µM
same,TGI,[55],> 100 µM
Cc1cc(C)nc(NS(=O)(=O)c2ccc(NC(=O)c3c4ccccc4nc4ccccc34)cc2)n1,TGI,[1],> 100 µM
same,TGI,[2],> 100 µM
same,TGI,[3],> 100 µM
same,TGI,[4],> 100 µM
same,TGI,[5],> 100 µM
same,TGI,[6],> 100 µM
same,TGI,[7],> 100 µM
same,TGI,[8],> 100 µM
same,TGI,[9],> 100 µM
same,TGI,[10],> 100 µM
same,TGI,[11],> 100 µM
same,TGI,[12],> 100 µM
same,TGI,[13],> 100 µM
same,TGI,[56],> 100 µM
same,TGI,[15],> 100 µM
same,TGI,[17],> 100 µM
same,TGI,[18],> 100 µM
same,TGI,[19],> 100 µM
same,TGI,[20],> 100 µM
same,TGI,[21],> 100 µM
same,TGI,[22],> 100 µM
same,TGI,[23],> 100 µM
same,TGI,[24],> 100 µM
same,TGI,[25],> 100 µM
same,TGI,[57],> 100 µM
same,TGI,[26],> 100 µM
same,TGI,[27],> 100 µM
same,TGI,[28],> 100 µM
same,TGI,[29],> 100 µM
same,TGI,[30],> 100 µM
same,TGI,[31],> 100 µM
same,TGI,[32],> 100 µM
same,TGI,[33],> 100 µM
same,TGI,[34],> 100 µM
same,TGI,[35],> 100 µM
same,TGI,[36],> 100 µM
same,TGI,[37],> 100 µM
same,TGI,[38],> 100 µM
same,TGI,[39],> 100 µM
same,TGI,[40],> 100 µM
same,TGI,[41],> 100 µM
same,TGI,[42],> 100 µM
same,TGI,[43],> 100 µM
same,TGI,[44],> 100 µM
same,TGI,[45],> 100 µM
same,TGI,[46],> 100 µM
same,TGI,[47],> 100 µM
same,TGI,[48],> 100 µM
same,TGI,[59],> 100 µM
same,TGI,[49],> 100 µM
same,TGI,[51],> 100 µM
same,TGI,[52],> 100 µM
same,TGI,[53],> 100 µM
same,TGI,[54],> 100 µM
same,TGI,[55],> 100 µM
